Reference: patent US9546129B2, “DTPA prodrugs, compositions thereof, and methods of using the same” (priority 2012, dated 2017)
Values after ≈ are worked out from the molar mass of the structure shown. Values joined by “and” are separate entries in the source; they are usually repeats but may differ in a detail not shown here. Identical values can stand only once. Like-named read-outs stand apart in the source and are kept apart here.

Assays:
[1] = system: ^241Am contaminated dogs (nose-only inhalation); assay: Efficacy study in dogs, preliminary ^241Am recovery in urine and liver; assay type: in vivo, dog; conditions: for Total Recovered Activity, Liver, Treatment Mean / Total Recovered Activity, Urine, Treatment Mean: dogs; for Total Recovered Activity, Liver / Total Recovered Activity, Urine: individual animals
Protocol: Dogs were administered ^241Am (target of 3 μCi/animal) by nose-only inhalation on Day 0. […] Group 1 was a control and was used for determining the unperturbed biokinetics. Fourteen (14) days post C2E2 administration, the animals were sedated and euthanized. Preliminary urinary excretion and liver retention data were obtained (Table 8).

[2] = Precipitation / solubility study in pH 3.0 buffer; assay type: physicochemical
Protocol: A precipitation study was performed to estimate the concentration at which no precipitation occurs. Initially, 12 samples of C2E2 were prepared at concentrations ranging from 40-150 mg/mL in pH 3.0 buffer in steps of 10 mg/mL. The solutions were left to stir until precipitation occurred.
Three samples of C2E2 at 60, 70 and 100 mg/mL in pH 3.0 buffer were prepared and stirred at room temperature. At 0.083, […], 1, 2, 4, 6, 20, 24 and 44 hours 0.5 mL samples were withdrawn centrifuged at 14,000×g and the concentration of supernatant measured by HPLC-CAD. At each time-point the pH of the supernatant was also measured.

[3] = C2E2 100 mg/kg oral, female dogs
[4] = C2E2 100 mg/kg oral, female dogs, 100 mg/kg
[5] = C2E2 100 mg/kg oral, male dogs, 100 mg/kg
[6] = C2E2 300 mg/kg oral, female dogs
[7] = C2E2 300 mg/kg oral, female dogs, 300 mg/kg
[8] = C2E2 300 mg/kg oral, male dogs, 300 mg/kg
[9] = C2E2 500 mg/kg oral, female dogs
[10] = C2E2 500 mg/kg oral, female dogs, 500 mg/kg
[11] = C2E2 500 mg/kg oral, male dogs, 500 mg/kg

Compound: CCOC(=O)CN(CCN(CCN(CC(=O)O)CC(=O)OCC)CC(=O)O)CC(=O)O [C2E2, 6,9-bis(carboxymethyl)-3-(2-ethoxy-2-oxoethyl)-11-oxo-12-oxa-3,6,9-triazatetradecan-1-oic acid]
- Total Recovered Activity, Liver, Treatment Mean ([1]; C2E2 100 mg/kg oral): 168.91 nCi
- Total Recovered Activity, Urine, Treatment Mean ([1]; C2E2 100 mg/kg oral): 168.70 nCi
- Total Recovered Activity, Liver, Gender Mean [1, 3]: 157.92 nCi
- Total Recovered Activity, Urine, Gender Mean [1, 3]: 168.30 nCi
- Total Recovered Activity, Liver [1, 4]: 186.4 nCi and 129.4 nCi
- Total Recovered Activity, Urine [1, 4]: 193.85 nCi and 142.75 nCi
- Total Recovered Activity, Liver, Gender Mean ([1]; C2E2 100 mg/kg oral, male dogs): 179.89 nCi
- Total Recovered Activity, Urine, Gender Mean ([1]; C2E2 100 mg/kg oral, male dogs): 169.10 nCi
- Total Recovered Activity, Liver [1, 5]: 213.3 nCi and 146.5 nCi
- Total Recovered Activity, Urine [1, 5]: 187.57 nCi and 150.63 nCi
- Total Recovered Activity, Liver, Treatment Mean ([1]; C2E2 300 mg/kg oral): 132.28 nCi
- Total Recovered Activity, Urine, Treatment Mean ([1]; C2E2 300 mg/kg oral): 169.50 nCi
- Total Recovered Activity, Liver, Gender Mean [1, 6]: 144.49 nCi
- Total Recovered Activity, Urine, Gender Mean [1, 6]: 181.71 nCi
- Total Recovered Activity, Liver [1, 7]: 87.6 nCi and 201.4 nCi
- Total Recovered Activity, Urine [1, 7]: 121.32 nCi and 242.10 nCi
- Total Recovered Activity, Liver, Gender Mean ([1]; C2E2 300 mg/kg oral, male dogs): 120.06 nCi
- Total Recovered Activity, Urine, Gender Mean ([1]; C2E2 300 mg/kg oral, male dogs): 157.29 nCi
- Total Recovered Activity, Liver [1, 8]: 109.2 nCi and 130.9 nCi
- Total Recovered Activity, Urine [1, 8]: 97.24 nCi and 217.34 nCi
- Total Recovered Activity, Liver, Treatment Mean ([1]; C2E2 500 mg/kg oral): 45.01 nCi
- Total Recovered Activity, Urine, Treatment Mean ([1]; C2E2 500 mg/kg oral): 188.82 nCi
- Total Recovered Activity, Liver, Gender Mean [1, 9]: 40.30 nCi
- Total Recovered Activity, Urine, Gender Mean [1, 9]: 103.00 nCi
- Total Recovered Activity, Liver [1, 10]: 34.3 nCi and 46.3 nCi
- Total Recovered Activity, Urine [1, 10]: 65.39 nCi and 140.61 nCi
- Total Recovered Activity, Liver, Gender Mean ([1]; C2E2 500 mg/kg oral, male dogs): 49.73 nCi
- Total Recovered Activity, Urine, Gender Mean ([1]; C2E2 500 mg/kg oral, male dogs): 274.65 nCi
- Total Recovered Activity, Liver [1, 11]: 49.4 nCi and 50.1 nCi
- Total Recovered Activity, Urine [1, 11]: 288.78 nCi and 260.53 nCi
- Time of sudden precipitation from supersaturated solution ([2]; 100 mg/ml in pH 3.0 buffer, stirred at room temperature): 20 to 24 h
- solubility ([2]; Lot 050, solutions at this concentration precipitated over time, read-out: Solubility, initially determined): 100 mg/mL (≈ 222 mM)
- solubility ([2]; aqueous buffer, thermodynamic from solid, pH 3.0 buffer, room temperature, read-out: Solubility at pH 3.0): 60 to 70 mg/mL (≈ 133 to 156 mM)
- C2E2 concentration above which precipitation was observed ([2]; pH 3.0 buffer, 24 hours stirring then 48 hours standing at room temperature): above 60 mg/mL
- C2E2 concentration above which precipitation was observed ([2]; pH 3.0 buffer, after 24 hours stirring): above 90 mg/mL
